Measurements: patent US20100216116A1, “VIRAL LATENCY MODEL” (priority 2007, published 2010)
Where “and” joins values, the source holds several entries; their conditions need not be identical. Identical values can stand only once.

B1: IFN-γ (protein, UniProt P01579 24-161, looked up)
Interferon gamma: QDPYVKEAENLKKYFNAGHSDVADNGTLFLGILKNWKEESDRKIMQSQIVSFYFKLFKNFKDDQSIQKSVETIKEDMNVKFFNSNKKKRDDFEKLTNYSVTDLNVQRKAIHELIQVMAELSPAAKTGKRKRSQMLFRG

Columns and labels:
Type in all cases: cell-based
[1] = test system: dormant PRV in porcine TG neurons
[2] = test system: HSV-1 strain F in porcine TG neurons
[3] = test system: pseudorabies virus (PRV) strain Becker in porcine trigeminal ganglion (TG) neurons
[4] = test system: IE180 expression in PRV infected porcine TG neurons

Molecule | infected neurons showing expression of late viral proteins [1] [%] | reactivation of PRV in neurons that contained dormant virus at 120 hpi [1] [%] | expression of HSV-1 gD protein after withdrawal [2] | productive HSV-1 infection [2] | TG neurons with no detectable expression of late viral antigens [3] [%] | infected neurons with spread of new virus to surrounding non-neuronal cells [3] [%] | neurons with late viral antigen expression limited to the golgi without spread [3] [%] | neurons without detectable expression of late viral proteins after withdrawal [3] [%] | reduction of productive virus infection [3] | IE180 expression in discrete nuclear foci after withdrawal [4] | infected neurons with IE180 in discrete nuclear compartments [4] | infected neurons with localized nuclear IE180 expression [4] [%] | infected neurons without any IE180 staining [4] [%] | infected neurons without detectable late viral protein expression [3] | virus spread in the inner chamber [3]
C=C[C@@]1(C)CC(=O)[C@]2(O)[C@@]3(C)[C@@H](O)CCC(C)(C)[C@@H]3[C@H](O)[C@H](OC(C)=O)[C@@]2(C)O1 [forskolin, Forskolin] | 70 | 50 |  |  |  |  |  |  |  |  |  |  |  |  | 
IFN-α |  |  | no detectable expression of HSV-1 gD protein was found in any neuron | completely abolished | ~90 | ~4 | ~6 | 60 | 64% and 98% | no infected neurons showing IE180 protein expression in discrete nuclear foci could be detected | detected in all infected neurons | 45 | 55 |  | 
B1 |  |  |  |  |  |  |  |  | 45% and 81% |  |  |  |  | Over 90% | extensive virus spread
